From patent publication US20230085307A1, “PYRIDAZINONE COMPOUND AND HERBICIDE” (NISSAN CHEMICAL CORPORATION, priority 2019, published 2023) come the findings set out here.

One assay relates to rice flat sedge. The assay is described as follows: Test Example 3: herbicidal effect by foliage application, Wagner pot (Table 18, symbol E). The format is in vivo, rice flat sedge (Cyperus iria). A digest of the protocol: (§1)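 Plants were sown in alluvial soil held under 0.1–0.5 cm standing water and grown 14 days in a greenhouse at 25–30 °C. An emulsifiable formulation, water-diluted to the set dose, was then sprayed onto the foliage, and effects were scored three weeks later using previously defined criteria.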

In assay [1] the test system is wild oat. The assay is described as follows: Test Example 4: herbicidal effect by soil treatment (Table 19, symbol I). The format is in vivo, wild oat (Avena fatua). A digest of the protocol:
(§2)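 Three weeks of greenhouse growth at 25° C. to 30° C. followed a uniform surface spray of water-diluted emulsion at a predetermined herbicide amount. Seeds had been sown beforehand under about 1.5 cm of sterilized diluvial soil. Grading followed criteria set out in an earlier test.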

Assay [2] has as its system windgrass. The assay is described as follows: Test Example 5: herbicidal effect by foliage application, plastic box (Table 20, symbol L). The format is in vivo, windgrass (Apera spica-venti). As to conditions: foliage application, three weeks after application. In outline: (§3)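 Plants sown in sterilized diluvial soil and grown 14 days in a greenhouse at 25° C to 30° C, then sprayed on the foliage with the compound's emulsion diluted in water to a predetermined herbicide amount. Injury to weeds and crops scored three weeks after application on a visual rating scale.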

The subject of assay [3] is wild oat. Kind of assay: Test Example 5: herbicidal effect by foliage application, plastic box (Table 20, symbol I). The format is in vivo, wild oat (Avena fatua). The settings on record: foliage application, three weeks after application. A digest of the protocol:
as §3

The test system of the next assay is Italian ryegrass. Kind of assay: Test Example 4: herbicidal effect by soil treatment (Table 19, symbol K). The format is in vivo, Italian ryegrass (Lolium multiflorum). In outline:
as §2

The subject of another assay is lambsquarters. Kind of assay: Test Example 5: herbicidal effect by foliage application, plastic box (Table 20, symbol O). The format is in vivo, lambsquarters (Chenopodium album). As to conditions: foliage application, three weeks after application. In outline: as §3
A further assay concerns southern crabgrass. The assay is described as follows: Test Example 5: herbicidal effect by foliage application, plastic box (Table 20, symbol F). The format is in vivo, southern crabgrass (Digitaria ciliaris). The settings on record: foliage application, three weeks after application. In outline:
as §3

Assay [4] concerns Japanese bulrush. The assay is described as follows: Test Example 1: herbicidal activity, application before weed generation under submerged conditions (Table 16, symbol B). The format is in vivo, Japanese bulrush (Schoenoplectus juncoides). A digest of the protocol:
(§4)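 Submerged Wagner pots (alluvial soil, 4 cm water) sown with weed seeds and planted with 2.5-leaf rice seedlings; emulsifiable concentrate diluted in water applied to water surface on sowing day. Held in greenhouse at 25-30 °C; injury scored 0-5 by herbicidal rate after three weeks.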

The test system of the next assay is oval-leafed pondweed. The assay is described as follows: Test Example 1: herbicidal activity, application before weed generation under submerged conditions (Table 16, symbol C). The format is in vivo, oval-leafed pondweed (Monochoria vaginalis). In outline:
as §4

The next assay deals with persian speedwell. Kind of assay: Test Example 5: herbicidal effect by foliage application, plastic box (Table 20, symbol R). The format is in vivo, Persian speedwell (Veronica persica). As to conditions: foliage application, three weeks after application. In outline: as §3
Assay [5] deals with Japanese bulrush. The assay is described as follows: Test Example 2: herbicidal activity, application during weed generation under submerged conditions (Table 17, symbol B). The format is in vivo, Japanese bulrush (Schoenoplectus juncoides). The settings on record: application during weed generation, submerged conditions. A digest of the protocol:
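Wagner pot, alluvial soil, 4 cm flood; mixed sowing of all species; greenhouse 25° C.–30° C. Emulsifiable formulation, water-diluted to predetermined dose, applied to paddy water at 1–2 leaf stage. Effect rated at 3 wk using the earlier test's scoring criteria.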

Assay [6] concerns windgrass. The assay is described as follows: Test Example 4: herbicidal effect by soil treatment (Table 19, symbol L). The format is in vivo, windgrass (Apera spica-venti). In outline: as §2
For a further assay, the system named is Chinese sprangletop. The assay is described as follows: Test Example 3: herbicidal effect by foliage application, Wagner pot (Table 18, symbol D). The format is in vivo, chinese sprangletop (Leptochloa chinensis). In outline:
as §1

The next assay deals with green foxtail. The assay is described as follows: Test Example 4: herbicidal effect by soil treatment (Table 19, symbol G). The format is in vivo, green foxtail (Setaria viridis). A digest of the protocol: as §2
A further assay has as its system chickweed. Kind of assay: Test Example 4: herbicidal effect by soil treatment (Table 19, symbol P). The format is in vivo, common chickweed (Stellaria media). A digest of the protocol: as §2
The subject of assay [7] is redroot pigweed. The assay is described as follows: Test Example 5: herbicidal effect by foliage application, plastic box (Table 20, symbol N). The format is in vivo, redroot pigweed (Amaranthus retroflexus). The settings on record: foliage application, three weeks after application. In outline: as §3
For assay [8], the system named is redroot pigweed. The assay is described as follows: Test Example 4: herbicidal effect by soil treatment (Table 19, symbol N). The format is in vivo, redroot pigweed (Amaranthus retroflexus). In outline:
as §2

Where [9] appears, read: amount of applied herbicide 214 g/ha.
The mark [10] stands for this setting: amount of applied herbicide 320 g/ha.

`COc1ccc2c(-c3c(O)c(C)nn(C)c3=O)c(-c3ccccc3OC)sc2c1` [Compound No. 3-065, 5-hydroxy-4-(6-methoxy-2-(2-methoxyphenyl)benzo[b]thiophen-3-yl)-2,6-dimethylpyridazin-3(2H)-one]: the “herbicidal effect on rice flat sedge (E)” value in the assay with rice flat sedge (214 g/ha) is 5 (Herbicidal rate of 90% or more (almost completely withered)). Besides, the “I: wild oat, herbicidal effect grade” value with wild oat [1] (setting [9]) was 2 (Herbicidal rate of 20% or more and less than 40%); with wild oat [3] (214 g/ha) it was 4 (Herbicidal rate of 70% or more and less than 90%). For the same compound, the “L: windgrass, herbicidal effect grade” value was 4 (Herbicidal rate of 70% or more and less than 90%) in the assay with windgrass [2] (214 g/ha); 3 (Herbicidal rate of 40% or more and less than 70%) in the assay on windgrass [6] (setting [9]). In the assay on Italian ryegrass (setting [9]), the “K: Italian ryegrass, herbicidal effect grade” value (“K: Italian ryegrass” below) was 3 (Herbicidal rate of 40% or more and less than 70%). In the assay with lambsquarters (214 g/ha), the “O: lambsquarters, herbicidal effect grade” value (“O: lambsquarters” for short) is 3 (Herbicidal rate of 40% or more and less than 70%). Further, the “F: southern crabgrass, herbicidal effect grade” value (shortened to “F: southern crabgrass”) in the assay on southern crabgrass (214 g/ha) is 4 (Herbicidal rate of 70% or more and less than 90%). Moreover, in the assay with Japanese bulrush [4] (setting [9]), the “Herbicidal effect, B: Japanese bulrush” value was 3 (Herbicidal rate of 40% or more and less than 70%). Further, the “Herbicidal effect, C: oval-leafed pondweed” value (“Herbicidal effect, C” for short) in the assay on oval-leafed pondweed (setting [9]) is 3 (Herbicidal rate of 40% or more and less than 70%). Besides, the “R: persian speedwell, herbicidal effect grade” value (“R: persian speedwell” for short) in the assay on persian speedwell (214 g/ha) was 5 (Herbicidal rate of 90% or more (almost completely withered)). Also, in the assay with Japanese bulrush [5] (AAH 214 g/ha), the “herbicidal effect rating, B: Japanese bulrush” value (shortened to “herbicidal effect rating, B”) was 1 (Herbicidal rate of 5% or more and less than 20%). Also, in the assay with Chinese sprangletop (214 g/ha), the “herbicidal effect on Chinese sprangletop (D)” value (“herbicidal effect … (D)” for short) was 2 (Herbicidal rate of 20% or more and less than 40%). The “G: green foxtail, herbicidal effect grade” value (from here on “G: green foxtail”) with green foxtail (setting [9]) is 5 (Herbicidal rate of 90% or more (almost completely withered)). The “P: chickweed, herbicidal effect grade” value in the assay with chickweed (setting [9]) is 5 (Herbicidal rate of 90% or more (almost completely withered)). In addition, the “N: redroot pigweed, herbicidal effect grade” value (shortened to “N: redroot pigweed”) in the assay on redroot pigweed [7] (214 g/ha) was 3 (Herbicidal rate of 40% or more and less than 70%); with redroot pigweed [8] (setting [9]), 4 (Herbicidal rate of 70% or more and less than 90%).
Turning to `COc1ccc2c(-c3c(O)c(Cl)nn(C)c3=O)c(-c3ccccc3OC)sc2c1` [Compound No. 3-088, 6-chloro-5-hydroxy-4-(6-methoxy-2-(2-methoxyphenyl)benzo[b]thiophen-3-yl)-2-methylpyridazin-3(2H)-one], the “herbicidal effect on rice flat sedge (E)” value with rice flat sedge (320 g/ha) is 5 (Herbicidal rate of 90% or more (almost completely withered)). Besides, the “I: wild oat, herbicidal effect grade” value is 0 (Herbicidal rate of 5% or less (almost no effect)) in the assay with wild oat [1] (setting [10]); 3 (Herbicidal rate of 40% or more and less than 70%) in the assay with wild oat [3] (320 g/ha). The “L: windgrass, herbicidal effect grade” value was 3 (Herbicidal rate of 40% or more and less than 70%) with windgrass [2] (320 g/ha); 0 (Herbicidal rate of 5% or less (almost no effect)) in the assay on windgrass [6] (setting [10]). Further, in the assay with Italian ryegrass (setting [10]), the “K: Italian ryegrass” value was 0 (Herbicidal rate of 5% or less (almost no effect)). Further, the “O: lambsquarters” value in the assay on lambsquarters (320 g/ha) was 4 (Herbicidal rate of 70% or more and less than 90%). For the same compound, the “F: southern crabgrass” value in the assay on southern crabgrass (320 g/ha) was 0 (Herbicidal rate of 5% or less (almost no effect)). In addition, in the assay on Japanese bulrush [4] (setting [10]), the “Herbicidal effect, B: Japanese bulrush” value was 5 (Herbicidal rate of 90% or more (almost completely withered)). Further, the “Herbicidal effect, C” value with oval-leafed pondweed (setting [10]) was 5 (Herbicidal rate of 90% or more (almost completely withered)). Besides, in the assay with persian speedwell (320 g/ha), the “R: persian speedwell” value is recorded as 5 (Herbicidal rate of 90% or more (almost completely withered)). For the same compound, in the assay on Japanese bulrush [5] (AAH 320 g/ha), the “herbicidal effect rating, B” value is 3 (Herbicidal rate of 40% or more and less than 70%). In the assay on Chinese sprangletop (320 g/ha), the “herbicidal effect … (D)” value is 4 (Herbicidal rate of 70% or more and less than 90%). Further, the “G: green foxtail” value in the assay on green foxtail (setting [10]) is on record as 5 (Herbicidal rate of 90% or more (almost completely withered)). The “P: chickweed, herbicidal effect grade” value in the assay with chickweed (setting [10]) is given as 5 (Herbicidal rate of 90% or more (almost completely withered)). For the same compound, the “N: redroot pigweed” value was 4 (Herbicidal rate of 70% or more and less than 90%) in the assay on redroot pigweed [7] (320 g/ha); 5 (Herbicidal rate of 90% or more (almost completely withered)) in the assay on redroot pigweed [8] (setting [10]).
On to `COc1ccccc1-c1sc2cc(OCC(F)(F)F)ccc2c1-c1c(O)c(C)nn(C)c1=O` [Compound No. 3-116, 5-hydroxy-4-(2-(2-methoxyphenyl)-6-(2,2,2-trifluoroethoxy)benzo[b]thiophen-3-yl)-2,6-di methylpyridazin-3 (2H)-one], for which the “herbicidal effect on rice flat sedge (E)” value in the assay on rice flat sedge (320 g/ha) was 5 (Herbicidal rate of 90% or more (almost completely withered)). The “I: wild oat, herbicidal effect grade” value was 3 (Herbicidal rate of 40% or more and less than 70%) with wild oat [1] (setting [10]); 5 (Herbicidal rate of 90% or more (almost completely withered)) in the assay on wild oat [3] (320 g/ha). In addition, the “L: windgrass, herbicidal effect grade” value in the assay with windgrass [2] (320 g/ha) was 5 (Herbicidal rate of 90% or more (almost completely withered)); in the assay on windgrass [6] (setting [10]) it was 4 (Herbicidal rate of 70% or more and less than 90%). Also, the “K: Italian ryegrass” value in the assay with Italian ryegrass (setting [10]) is 5 (Herbicidal rate of 90% or more (almost completely withered)). Moreover, the “O: lambsquarters” value with lambsquarters (320 g/ha) is 5 (Herbicidal rate of 90% or more (almost completely withered)). For the same compound, the “F: southern crabgrass” value in the assay on southern crabgrass (320 g/ha) was 5 (Herbicidal rate of 90% or more (almost completely withered)). In the assay on Japanese bulrush [4] (setting [10]), the “Herbicidal effect, B: Japanese bulrush” value is 5 (Herbicidal rate of 90% or more (almost completely withered)). Besides, the “Herbicidal effect, C” value in the assay with oval-leafed pondweed (setting [10]) is reported as 5 (Herbicidal rate of 90% or more (almost completely withered)). In the assay with persian speedwell (320 g/ha), the “R: persian speedwell” value is recorded as 5 (Herbicidal rate of 90% or more (almost completely withered)). The “herbicidal effect rating, B” value with Japanese bulrush [5] (AAH 320 g/ha) is 3 (Herbicidal rate of 40% or more and less than 70%). In addition, the “herbicidal effect … (D)” value in the assay with Chinese sprangletop (320 g/ha) was 5 (Herbicidal rate of 90% or more (almost completely withered)). Moreover, in the assay with green foxtail (setting [10]), the “G: green foxtail” value is given as 5 (Herbicidal rate of 90% or more (almost completely withered)). Further, the “P: chickweed, herbicidal effect grade” value in the assay with chickweed (setting [10]) is 4 (Herbicidal rate of 70% or more and less than 90%). The “N: redroot pigweed” value in the assay with redroot pigweed [7] (320 g/ha) and in the assay with redroot pigweed [8] (setting [10]) was 5 (Herbicidal rate of 90% or more (almost completely withered)) each time.
